Target: T1, GSPT1 (Homo sapiens, UniProt P15170+Q96SW2)
T1 construct: Whole cell lysates were prepared from MV4-11 CD33-positive AML cells; endogenous in cells; host or cells: MV4-11 (CD33-positive AML cells)
Assay: GSPT1 degradation by western blot in MV4-11 cells
Type: cell-based
Settings: FIG. 8
Source text: GSPT1 was probed by commercially available rabbit-anti-GSPT1 antibody (Abcam) followed by anti-rabbit HRP conjugated secondary antibody (Cell Signaling Technology) and detected by chemiluminescent substrate (ThermoFisher). PVDF membrane was then stripped and re-probed with beta-Actin-HRP conjugated antibody (Cell Signaling Technology).

T1 sequence (P15170 whole entry): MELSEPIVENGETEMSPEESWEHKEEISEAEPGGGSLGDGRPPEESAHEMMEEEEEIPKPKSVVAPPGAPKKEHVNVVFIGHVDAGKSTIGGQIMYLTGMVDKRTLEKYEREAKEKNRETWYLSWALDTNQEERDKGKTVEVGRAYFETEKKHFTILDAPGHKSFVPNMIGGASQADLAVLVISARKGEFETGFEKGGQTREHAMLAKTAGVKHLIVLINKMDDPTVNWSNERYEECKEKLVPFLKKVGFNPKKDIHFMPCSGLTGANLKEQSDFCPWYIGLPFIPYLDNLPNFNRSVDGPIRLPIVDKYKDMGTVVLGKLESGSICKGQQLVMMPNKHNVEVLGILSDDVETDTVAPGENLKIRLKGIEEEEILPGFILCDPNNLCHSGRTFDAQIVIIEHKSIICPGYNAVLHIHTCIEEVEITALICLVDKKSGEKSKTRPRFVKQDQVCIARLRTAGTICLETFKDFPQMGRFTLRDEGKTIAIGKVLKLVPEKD
T1 sequence (Q96SW2 whole entry): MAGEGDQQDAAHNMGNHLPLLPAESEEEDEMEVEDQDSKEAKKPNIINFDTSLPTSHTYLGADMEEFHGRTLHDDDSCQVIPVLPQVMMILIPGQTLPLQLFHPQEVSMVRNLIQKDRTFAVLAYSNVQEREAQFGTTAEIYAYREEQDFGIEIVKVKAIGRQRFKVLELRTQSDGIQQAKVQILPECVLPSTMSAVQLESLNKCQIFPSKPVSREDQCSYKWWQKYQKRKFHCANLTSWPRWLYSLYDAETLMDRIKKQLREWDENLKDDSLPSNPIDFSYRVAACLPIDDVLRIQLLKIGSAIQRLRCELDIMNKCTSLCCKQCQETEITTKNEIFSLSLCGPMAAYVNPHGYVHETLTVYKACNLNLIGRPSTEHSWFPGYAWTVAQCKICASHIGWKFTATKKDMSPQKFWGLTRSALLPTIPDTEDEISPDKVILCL
T1 sequence (Q16531 whole entry partner): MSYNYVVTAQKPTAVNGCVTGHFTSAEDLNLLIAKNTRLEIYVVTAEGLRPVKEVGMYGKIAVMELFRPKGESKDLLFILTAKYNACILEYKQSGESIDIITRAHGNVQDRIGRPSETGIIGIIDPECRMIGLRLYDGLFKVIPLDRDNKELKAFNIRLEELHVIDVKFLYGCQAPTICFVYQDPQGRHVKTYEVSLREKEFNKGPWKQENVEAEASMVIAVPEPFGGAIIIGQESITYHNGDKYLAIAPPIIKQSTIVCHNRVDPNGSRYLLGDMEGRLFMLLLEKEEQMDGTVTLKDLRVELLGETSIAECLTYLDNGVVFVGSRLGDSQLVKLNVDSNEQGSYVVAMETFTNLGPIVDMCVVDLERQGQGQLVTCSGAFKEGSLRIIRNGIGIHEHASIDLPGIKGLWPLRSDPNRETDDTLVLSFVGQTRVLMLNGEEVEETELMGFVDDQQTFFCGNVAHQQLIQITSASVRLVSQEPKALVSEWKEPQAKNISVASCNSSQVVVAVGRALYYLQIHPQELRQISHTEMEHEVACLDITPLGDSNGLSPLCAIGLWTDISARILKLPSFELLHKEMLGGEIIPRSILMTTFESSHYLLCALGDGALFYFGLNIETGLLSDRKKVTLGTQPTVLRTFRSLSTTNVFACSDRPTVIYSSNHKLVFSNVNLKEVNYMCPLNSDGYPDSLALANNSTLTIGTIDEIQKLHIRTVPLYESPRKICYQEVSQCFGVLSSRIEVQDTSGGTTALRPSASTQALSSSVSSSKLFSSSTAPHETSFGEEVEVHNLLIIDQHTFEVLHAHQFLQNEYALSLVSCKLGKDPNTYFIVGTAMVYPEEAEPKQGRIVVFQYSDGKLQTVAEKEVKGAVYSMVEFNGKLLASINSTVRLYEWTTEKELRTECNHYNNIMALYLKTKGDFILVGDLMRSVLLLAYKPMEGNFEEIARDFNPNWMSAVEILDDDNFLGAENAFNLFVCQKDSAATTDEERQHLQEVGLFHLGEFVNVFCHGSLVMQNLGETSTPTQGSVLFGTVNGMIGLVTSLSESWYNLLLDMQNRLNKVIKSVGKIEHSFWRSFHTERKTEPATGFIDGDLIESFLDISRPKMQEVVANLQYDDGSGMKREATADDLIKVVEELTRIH

- durability of GSPT1 depletion (MV4-11 cells, 6, 12 and 18 hours): transient depletion
- decreases in GSPT1 levels (MV4-11 cells, as short as 6 hours post-dosing): dose-dependent decreases
SMILES: CNCCOCCc1ccc(NC(=O)NCc2ccc3c(c2)CN(C2CCC(=O)NC2=O)C3=O)cc1Cl (centres unmarked) [neoDegrader P1, 1-(3-chloro-4-[2-[2-(methylamino)ethoxy]ethyl]phenyl)-3-[[2-(2,6-dioxopiperidin-3-yl)-1-oxo-3H-isoindol-5-yl]methyl]urea]
